Values belong to the substance of their own block, whether it stands above or below them. Ends that are not written are not given here.
Legend:
rats = conditions: central administration, ref McGowan et al., 2005, 2006, Ganella et al., 2012b; cited from earlier work
From the text: Relaxin-3 is involved in a wide range of behaviors, including feeding, stress responses, arousal, and cognitive processes ([Smith et al., 2011]). […] Relaxin-3 neuronal activity and production of relaxi ...

RXFP4 = conditions: ref Liu et al., 2003a; cited from earlier work
From the text: Relaxin-3 is a member of the relaxin peptide family. Peptides from this family activate relaxin family peptide (RXFP) receptors, which are Type I or Class A G protein-coupled receptors (GPCRs). […] The rela ... || Based on the hypothesis that coevolution of relaxin-3 and RXFP3 occurred in vertebrates and that residues important for relaxin-3 binding and activation should therefore be conserved we performed multiple sequence alignments of all vertebrate RXFP3 sequences. […] Figure 1A highlights sequence alignments of representative mammalian species (human, chimpanzee, rat, mouse, platypus) and representative lower vertebrate species (Frog and Zebrafish) from this analysis compa ... || Based on the hypothesis that coevolution of relaxin-3 and RXFP3 occurred in vertebrates, and in the knowledge that the key relaxin-3 B-chain residues are conserved across all vertebrate species ([Wilkinson et al., 2005b]), we performed multiple sequence alignments of all vertebrate RXFP3 sequences to identify highly conserved residues in the ELs and NT domain that may be involved in relaxin-3 binding. […] We have focused on glutamic (E) and aspartic acid (D) residues ...

RXFP1 = conditions: ref Sudo et al., 2003; cited from earlier work
From the text: Relaxin-3 is a member of the relaxin peptide family. Peptides from this family activate relaxin family peptide (RXFP) receptors, which are Type I or Class A G protein-coupled receptors (GPCRs). […] The rela ...

[1] = system: chimeric RXFP3/4 receptors; conditions: ref Zhu et al., 2008; cited from earlier work
From the text: (§1) Although residues in the peptides have been identified as critical for activity, the specific residues in the receptors that are interacting with these are unknown. […] In addition they determined that sites in transmembrane (TM) 2, 3, and 5 are involved in receptor activation by INSL5 ([Zhu et al., 2008]). None of the receptor chimeras resulted ...

RXFP4 over RXFP3 = conditions: ref Zhu et al., 2008; cited from earlier work
From the text: as §1

HA-RXFP3 E245A (human) = HA-RXFP3 E245A (human) (UniProt Q9NSD7); assay: europium-labelled ligand binding on cells; specific binding of 5 nM Eu-H3/I5 to transfected HEK-293T cells in 96 well optiplates; non-specific binding with 1 uM unlabeled H3 relaxin; expressed as ratio of specific binding to cell surface expression, normalized to HA-RXFP3
HA-RXFP3 E77A (human) = HA-RXFP3 E77A (human) (UniProt Q9NSD7); assay: as above

Substance: relaxin-3: highly conserved neuropeptide, member of the relaxin peptide family; endogenous ligand of RXFP3
effect on feeding (rats): increase feeding in rats | binding to and activation of RXFP4 (RXFP4): able to bind to and activate both RXFP4 | binding to and activation of RXFP1 (RXFP1): able to bind to and activate both RXFP4 ([Liu et al., 2003a]) and RXFP1 | effect of receptor chimeras on binding or activity [1]: None of the receptor chimeras resulted in appreciable changes in relaxin-3 binding or activity

Substance: INSL5: related insulin-like peptide-5, ligand of RXFP4 (Insulin-like peptide INSL5 B … KESVRLCGLEYIRTVIYICASSRW; Insulin-like peptide INSL5 A … QDLQTLCCTDGCSMTDLSALC; ends and bridges not checked; cysteine pairing not given here; UniProt Q9Y5Q6 23-46; Q9Y5Q6 115-135, looked up)
selectivity (RXFP4 over RXFP3): selectivity of INSL5 for RXFP4 over RXFP3

decrease in specific binding against HA-RXFP3 (HA-RXFP3 E245A (human)): 50% | loss of specific binding against HA-RXFP3 (HA-RXFP3 E77A (human)): 50%
Substance: mono-Eu-labeled relaxin-3 agonist H3 relaxin B-chain, INSL5 A chain (H3/I5) (ligand)

From publication PMC3579193, “Elucidation of relaxin-3 binding interactions in the extracellular loops of RXFP3” (Frontiers in Endocrinology, 2013)
